From a melting point compilation (Tetko et al.; mined from patent text by program, amines drawn as free bases though some values may be those of a salt)

Compound `O=C(Nc1ncco1)C1c2ccccc2Oc2ccccc21` has a melting point of 232 to 235 °C.
`Cn1cnc2c(Cl)nccc21` showed a melting point of 127 to 131 °C.
`CNS(=O)(=O)c1ccccc1Nc1nc(Nc2ccc3c(c2)COC[C@@H]2CCCN32)ncc1Cl` showed a melting point of 187 to 188 °C.
Work on `Cn1nc(-c2ccc3c(c2)OCO3)c(-c2ccncc2)c1NC(=O)Cc1ccccc1` yielded a melting point of 128 to 132 °C.
In the case of `Cc1cn([C@H]2CC[C@@H]3CC(=O)N[C@H]2C3)c(=O)n(COCc2ccccc2)c1=O`, the melting point was 160 to 162 °C.
In the case of `Cc1ccc2c(c1Cl)C(=O)N(C1(C(N)=O)CCCCC1)C2=O`, the melting point was 192 to 208 °C.
In the case of `Cc1cscc1NC(=S)Nc1cccc(C)c1N`, the melting point was 184 to 186 °C.
In the case of `CSc1ccc(CN(C)CCCCc2ccc(NC(=O)c3cccc4c(=O)c5ccccc5[nH]c34)cc2)cc1`, the melting point was 135 °C.
Compound `CC=C(C#N)c1cccnc1` has a melting point of 46 to 47 °C.
For `COc1ccc(OCC(O)CCN2CCN(c3ccccc3)CC2)cc1` (stereo not given), the melting point was 103 to 105 °C.
In the case of `COC1=C(OC)C(=O)C2=C(CC(CCCCCCCCN3CCN(Cc4ccccc4)CC3)C2)C1=O`, the melting point was 80 to 81 °C.
`Cc1cc(C)n(-c2nc(Nc3ccc(N4CCOCC4)cc3)c3ccccc3n2)n1` showed a melting point of 268 to 270 °C.
In the case of `NCCc1cc(F)cc(C(F)(F)F)c1`, the melting point was greater than 170 °C.
`CN(C)CCCNC(=O)Cn1cnc(-c2ccccc2)c1-c1ccccc1` gave a melting point of 92 to 94 °C.
In the case of `N#Cc1c2c(c3c(c1N1CCCC1)Cc1ccccc1-3)-c1ccccc1C2`, the melting point was 206 to 208 °C.
With `CSc1nn2c(N3CCN(C)CC3)ccnc2c1S(=O)(=O)c1ccccc1` the melting point was 107 to 109 °C.
Compound `CCOC(=O)C1C=Nc2c(ccc3cccnc23)C1=O` (stereo not given) has a melting point of 242 to 244 °C.
Compound `COc1ccc2nc(Cl)cc(C)c2c1` has a melting point of 144 to 145 °C.
`O=C1c2ccccc2C(O)N1CCSc1ccncc1` (stereo not given) showed a melting point of 112 °C.
In the case of `COc1ccc(CCNC(=O)C(=O)Nc2ccncc2)cc1OC1CCCC1`, the melting point was 182 °C.
`CCCCCCCCCCCCCCOc1cccc(CC(=O)Nc2ccccc2CBr)c1` gave a melting point of 103 to 106 °C.
Work on `CCN1CCC(c2c[nH]c3ccc(NC(=O)c4ccco4)cc23)CC1` yielded a melting point of 178 to 179 °C.
`Cc1[nH]n(C2CCCC2)c2nc(-c3cc[nH]c(=O)c3)nc(=O)c1-2` showed a melting point greater than 300 °C.
For `CON=C(C(=O)O)c1nc(NC=O)c(Cl)cc1Cl`, the melting point was 164 to 165 °C.
For `COc1cc(-c2ccc(NCc3ccccc3)nn2)ccc1OC(F)F`, the melting point was 136 °C.
`CCN1C(=O)c2cnc(-c3ccccc3)nc2Nc2ccccc21` gave a melting point of 198 to 199 °C.
Work on `CCOC(=O)c1cnc2c(N)c(Cl)c(F)cc2c1O` yielded a melting point of 268 to 270 °C.
Work on `CCOC(=O)Cc1c(C(=O)CC)sc2[nH]c(C(=O)CC)cc12` yielded a melting point of 147 to 148 °C.
Compound `O=C(O)c1cc(O)c(Cl)c(Cl)c1` has a melting point of 211 °C.
With `COC(=O)c1cncc(OC2SCC(OC(C)=O)C(OC(C)=O)C2OC(C)=O)c1` (stereo not given) the melting point was 50 °C.
For `O=C(Oc1ccccc1)c1ccc2[nH]nnc2c1`, the melting point was 156 to 160 °C.
Compound `COc1cc(C=Cc2nc3c(c(=O)n(C)c(=O)n3C)n2C)cc(OC)c1OCc1ccccc1` has a melting point of 190 to 195 °C.
Compound `CC(C)(C)c1cc(S)cc(C(C)(C)C)c1` has a melting point of 47 to 49 °C.
Work on `CN(C)C=C1CCCc2cc(N3C[C@H](CNC(=O)OC(C)(C)C)OC3=O)ccc2C1=O` yielded a melting point of 157 to 160 °C.
With `Cc1cc(C(=O)c2[nH]c(=O)[nH]c(=O)c2C(C)C)cc([N+](=O)[O-])c1` the melting point was 124 to 125 °C.
`CC(O)C1CCC2C3CCC4=CC(=O)CCC4(C)C3CCC12C` (stereo not given) gave a melting point of 163 to 166 °C.
For `Cn1nc2c(N)nc3ccccc3c2c1CC(C)(C)C`, the melting point was 254 to 255 °C.
Compound `O=C(CCCCCN1CCN(c2cccc(C(F)(F)F)c2)CC1)N1Cc2ccc(C3=NCCO3)cc2C1` has a melting point of 129 °C.
For `CCN(CC)CCCC(=O)O`, the melting point was 45 to 47 °C.
Compound `O=C(NCCO)c1cccc(-c2ccc3c(c2)N(c2ccc(Cl)c(Cl)c2)CC3)c1` has a melting point of 167 to 168 °C.
In the case of `N=C(NCCCc1c[nH]cn1)N[N+](=O)[O-]`, the melting point was 156 to 158 °C.
For `Cc1c(I)nc2n1CCc1ccccc1C2OC1CCN(C)CC1` (stereo not given), the melting point was 59 °C.
With `CCCn1nc2c(N)nc3ccccc3c2c1CC(C)(C)N` the melting point was 193 to 195 °C.
`CCc1cc2cc(O)ccc2c(Oc2ccc(/C=C/C(=O)N3CCN(C)CC3)cc2)c1-c1ccccc1` showed a melting point of 195 to 196 °C.
Work on `Cc1cn([C@H]2C=C[C@@H](O)C2)c(=O)nc1N` (racemic) yielded a melting point of 190 to 192 °C.
Compound `O=C(Nc1cccnc1)N1CCc2c1ccc(Cl)c2Cl` has a melting point greater than 240 °C.
With `CC(=O)C1C(=O)CC(C#N)CC1=O` (stereo not given) the melting point was 66 to 69 °C.
For `COCc1csc2c(C(=O)O)c(=O)c3cc4c(cc3n12)OCO4`, the melting point was 265 °C.
Work on `CNCCCNC(=O)[C@@H]1CCCN1S(=O)(=O)c1ccc(Cl)c(COc2cccc3c(C)cc(C)nc23)c1Cl` yielded a melting point of 85 °C.
With `N#Cc1cc(F)c(N)cc1Oc1ccc2ccccc2c1` the melting point was 89 °C.
Compound `Nc1nc(N)nc(-c2ccc(C(O)c3ccccc3)cc2)n1` (racemic) has a melting point of 214 to 216 °C.
With `C=C1C(=O)c2ccccc2OC1c1ccc(N(C)C)cc1` (stereo not given) the melting point was 110 to 112 °C.
In the case of `Cc1cccc2nc3n(c12)CC(c1ccccn1)S3` (stereo not given), the melting point was 128 to 130 °C.
In the case of `O=C1CC(c2csc(-n3ccnc3)n2)=Nc2ccc(-c3ccccc3F)cc2N1`, the melting point was 194 to 197 °C.
For `CCOC(=O)c1ccc(S(=O)(=O)Oc2c(-c3ccccc3)cc(C(=O)c3ccccc3)cc2-c2ccccc2)cc1O`, the melting point was 75 to 85 °C.
With `C[C@@H](n1ccn(-c2ccc(-n3ccnn3)cc2)c1=O)[C@](O)(Cn1cncn1)c1ccc(F)cc1F` the melting point was 178 to 181 °C.
`COC(=O)N[C@H](C(=O)NN(Cc1ccc(-c2cncs2)cc1)C[C@H](O)[C@H](Cc1ccccc1)NC(=O)[C@@H](NC(=O)OC)C(C)(C)C)C(C)C` showed a melting point of 134 to 135 °C.
`CC(C)[C@@H]1CC[C@@H](C)C[C@H]1C(=O)Nc1ccc(CC#N)cc1` gave a melting point of 146 to 150 °C.
For `CCNC(=O)Nc1ccc(-c2sc3c(c2CN(C)CCC(=O)N2CCCC2)c(=O)n(-c2ccccc2)c(=O)n3Cc2c(F)cccc2F)cc1`, the melting point was 240 to 244 °C.
In the case of `COC(=O)c1cc(C(=O)OC)cc(-c2ccc(C=O)cc2)c1`, the melting point was 166 to 169 °C.
In the case of `CC(C)(C)S(=O)C1CC(=O)N1CC(=O)CCc1ccccc1` (stereo not given), the melting point was 79 to 81 °C.
With `O=c1c2cn(Cc3ccccc3F)c3ccccc3c-2nn1-c1ccc(Cl)cc1` the melting point was 338 to 339 °C.
Compound `Nc1nc(NCCc2ccc(Oc3nc(N)n4nc(-c5ccco5)nc4n3)cc2)nc2nc(-c3ccco3)nn12` has a melting point of 186 to 190 °C.
Compound `CC(=O)NC[C@H]1CN(c2ccc(N3CC(O[Si](C)(C)C(C)(C)C)C3)c(F)c2)C(=O)O1` has a melting point of 184 °C.
Compound `CC(=O)C=Cn1sc(Cl)cc1=O` has a melting point of 137 to 139 °C.
In the case of `CONC(=O)NC1(c2ccc(C(C)C)cc2OC)C(=O)c2ccccc2C1=O`, the melting point was 153 to 155 °C.
With `CCCCCCCCC1C(=O)NC(=O)N1CCCCCCC(=O)OCC` (stereo not given) the melting point was 68 to 70 °C.
Work on `CC[C@@H]1COC(=O)N1c1nc(-c2ccc(C#N)cc2)cs1` yielded a melting point of 153 to 157 °C.
Compound `Cc1ccccc1Nc1nc(Cl)nc2ccccc12` has a melting point of 192 to 194 °C.
Compound `COC(=O)CCc1cc2cc(Cl)ccc2n1S(=O)(=O)c1cccc2c(C(=O)CN)cccc12` has a melting point of 206 to 210 °C.
`CN1CCNC(c2ccccc2)c2cc([N+](=O)[O-])ccc21` (stereo not given) showed a melting point of 96 to 99 °C.
Work on `O=C1CCC(C(=O)N2CCN(C(=O)CN3CCOCC3)CC2)N1` (stereo not given) yielded a melting point of 204 to 205 °C.
`CC1(C)C2CC[C@@]1(C)C(=O)C(C(=O)Nc1ccc(F)c(C(F)(F)F)c1)C2=O` (stereo not given in full) showed a melting point of 96 to 98 °C.
Work on `O=C(O)Cc1ccc(OCc2ccc(F)cc2C(=O)O)cc1` yielded a melting point of 195 to 197 °C.
Compound `COC(=O)c1cc(-c2nc3ccccc3s2)cc2c1OC(c1ccccc1)(c1ccccc1)O2` has a melting point of 184 to 185 °C.
In the case of `COc1ccc2c(c1)C(=O)c1cc(CC(=O)O)ccc1SC2`, the melting point was 155 to 157 °C.
`CCC1SCCCN1C(=S)Nc1cccc(Br)c1` (stereo not given) gave a melting point of 77 to 79 °C.
Compound `Clc1ccc2c(c1)N(C1CN3CCC1CC3)c1ccccc1S2` (stereo not given) has a melting point of 165 °C.
For `CC1(C)COc2cc3c(cc21)C1(CO3)C(=O)N(Cc2ccc(C(F)(F)F)o2)c2ccccc21` (stereo not given), the melting point was 155 to 160 °C.
With `Cc1ncc2cc(-c3cc(C(F)(F)F)cc(C(F)(F)F)c3)ccc2n1` the melting point was 208 to 210 °C.
`Nc1cccc(S(=O)(=O)N2CC=CC2)c1` showed a melting point of 187 to 188 °C.
In the case of `CC/C(=C\C=C\C(O)(C(F)(F)F)C(F)(F)F)c1cccc(CCc2ccc(CO)c(CO)c2)c1`, the melting point was 104 °C.
With `Nc1ccc(C(CC2CCCC2)C(=O)O)cc1` (stereo not given) the melting point was 167 to 169 °C.
For `O=C(O)CN1C(=O)C(=CCCCCl)SC1=S`, the melting point was 155 to 157 °C.
`CCOC(=O)C1C(=O)CC(C)(O)C(C(=O)OCC)C1c1cc(C)c2oc(C)c(C)c2c1` (stereo not given) showed a melting point of 168 to 171 °C.
With `O=C(Nc1c(C(=O)c2ccccc2)[nH]c2cc(Cl)ccc12)c1ccccc1Cl` the melting point was 229 to 234 °C.
Compound `CC(C)(CC(=O)O)SC(CCCc1ccccc1)c1ccc(OCc2ccc3ccccc3n2)cc1` (stereo not given) has a melting point of 90 to 92 °C.
With `COC(=O)c1ccc(-c2ccc3cc(OCc4ccccc4)c(C45CC6CC(CC(C6)C4)C5)cc3c2)s1` the melting point was 170 to 171 °C.
`CNC(=O)C(=NOC)c1ccccc1ON=C(C)c1cccc(C)c1` gave a melting point of 109 to 111 °C.
For `COc1ccc(S(=O)(=O)N(CC(N)=O)c2ccc(Cl)cc2Cc2cc(Cl)ccc2Cl)cc1OC`, the melting point was 200 °C.
Compound `O=C(O)C1CC(=C2CCCN(c3ccccc3)C2=O)c2ccc(Cl)cc2N1` (stereo not given) has a melting point of 130 to 133 °C.
In the case of `C1=C2NCCCN2C(c2ccccc2)c2ccccc2C1` (stereo not given), the melting point was 138 to 141 °C.
With `CCCCCCCC=C1SC(=S)N(N=c2sc3ccccc3s2)C1=O` the melting point was 185 °C.
`CCc1c(C)c2c(OC)cc(-c3ccc(C(C)C)cc3)cc2oc1=O` showed a melting point of 115 °C.
`CCCC(=O)c1cc2c(=O)cc(C(=O)O)[nH]c2cc1C` gave a melting point of 255 to 258 °C.
Work on `N#CN=C(NCCO)NCCCSc1nccc(NC(N)=NCC(F)(F)F)n1` yielded a melting point of 114 to 116 °C.
Work on `O=C(O)c1ccc(C(=C2CC3CCC(C2)N3CCc2ccccc2)c2ccccc2)cc1` yielded a melting point of 285 to 290 °C.
Compound `O=C(N[C@H]1CC[C@H](CCN2CCN(c3nccc4c3CCO4)CC2)CC1)c1ccc2ncccc2c1` has a melting point of 227 °C.
In the case of `N#Cc1ccc2c(c1)NC(=O)C2c1ncnc2c1cnn2C1CCCC1` (stereo not given), the melting point was 335 to 338 °C.
Compound `C=CCOC(=O)C1=C(C)NC(C)=C(C(=O)OC)C1c1cc(Br)c(OC)c(OC)c1` (stereo not given) has a melting point of 123 to 124 °C.
